Laboratory results: patent US11291660B2, “Method of treating heart failure with preserved ejection fraction by administering milrinone” (Baker Heart and Diabetes Institute, priority 2014, dated 2022)

How the values were obtained:
[1] = Saturated solubility of Milrinone in different buffers; type: physicochemical; settings: pH 1.2 to 7.4 buffers
Protocol: Aim: To perform the saturated solubility of Milrinone in different buffers.
1. pH 1.2—Hydrochloric Acid Buffer
3. pH 6.8—Phosphate Buffer
4. pH 7.4—Phosphate Buffer.
• 1. 2 mL buffer solution is placed into a 8 mL USP Type I clear glass vial (with screw cap and PTFE septa) • 2. 10 mg of Milrinone is added in each vial and the vial is shaken to dissolve the compound. • 3. The addition of Milrinone is continued till the formation of saturated solution. • 4. The pH of the saturated solution is measured after the addition of Milrinone. • 5. If there is any difference in pH more than 0.1 units is observed when compared to the initial pH, the pH was adjusted with acid or base respectively to bring it to the initial pH. • 6. The vials are closed with screw cap and kept for mixing using rotary tube shaker for 24 h. Note: The vials are observed at frequent intervals and if the solution is clear, further amount of Milrinone is added to make a saturated solution.

[2] = tested on: HFpEF patients; settings: cited from earlier work
[3] = tested on: HFpEF; settings: in vivo; cited from earlier work
[4] = tested on: HFpEF patients; settings: cited from earlier work; remark: listed apart in the source
[5] = tested on: HFpEF patients; settings: cited from earlier work; remark: listed apart in the source

## Cc1[nH]c(=O)c(C#N)cc1-c1ccncc1 [Milrinone, 1,2-dihydro-3-cyano-6-methyl-5-(4-pyridinyl)-2(1H)-pyridinone]
[1]
  Solubility as a function of pH (in words): highly soluble in acidic pH

## COc1ccccc1OCC(O)CN1CCN(CC(=O)Nc2c(C)cccc2C)CC1 (stereo not drawn) [Ranolazine]
[2]
  Echocardiographic parameters or exercise performance: did not result in a change

## C[C@H]1O[C@@H](O[C@H]2[C@@H](O)C[C@H](O[C@H]3[C@@H](O)C[C@H](O[C@H]4CC[C@@]5(C)[C@H](CC[C@@H]6[C@@H]5C[C@@H](O)[C@]5(C)[C@@H](C7=CC(=O)OC7)CC[C@]65O)C4)O[C@@H]3C)O[C@@H]2C)C[C@H](O)[C@@H]1O [digoxin]
[3]
  Benefit as therapy for HFpEF: little or no conclusive benefit

## CCCc1nn(C)c2c(=O)[nH]c(-c3cc(S(=O)(=O)N4CCN(C)CC4)ccc3OCC)nc12 [sildenafil]
[4]
  Exercise capacity or clinical status: did not result in improvement

## CC(=O)S[C@@H]1CC2=CC(=O)CC[C@]2(C)[C@H]2CC[C@@]3(C)[C@@H](CC[C@@]34CCC(=O)O4)[C@H]12 [spironolactone]
[5]
  Left ventricular diastolic function: improved left ventricular diastolic function
  Maximal exercise capacity, patient symptoms or quality of life: did not affect
